{"source": "patent US8252790B2", "about": "“Pyrazole-3-carboxamide derivative having 5-HT2B receptor antagonist activity” (Raqualia Pharma Inc., priority 2008, dated 2012)", "system": "TNBS induced IBS model", "assay": "Colonic distension study in TNBS induced rat IBS model (pain threshold)", "assay_type": "in vivo", "conditions": "male SD rats, TNBS 50 mg/kg, 7 days after surgery; 10 mg/kg p.o.; FIG. 1", "procedure": "[Evaluation of Therapeutic Effects on IBS in the Rat]\nThe pharmacological effects of the test compounds in this invention was evaluated by measuring the improvement effect against lowering of the pain threshold at colon extension stimulation in TNBS induced IBS model.\nFor details, please refer to the literature, Katsuyo Ohashi at al., Pharmacology, 81(2): 144-150 (2008).\nThe median incision was conducted under anesthesia in animals, male SD rats, 240-270 g. TNBS solution (50 mg/kg, 30% methanol) was treated at the beginning of the colon in the rats. After the treatment, the cecum is put back into the abdominal cavity. The muscle wall is then sutured. After operation the animals were housed in the normal environment, and were used for the pharmacological evaluation after 7 days from the surgery. The colon extension stimulation was used for the evaluation of the compounds, Diop L. et al., J Pharmacol Exp Ther. 302(3): 1013-22 (2002). The balloon (5 cm in length) is inserted through the anus and kept in position (tip of balloon is 5 cm from the anus). Then the balloon was progressively inflated by step of 5 mm Hg, from 0 to 70 mm Hg by using Barostat (Barostat DISTENDER II R, G & J, CANADA). The pain threshold was evaluated the pressure that corresponded to produced the first abdominal contraction (abdominal cramp: Wesselmann U et al., (1998) Neurosci Lett 246: 73-76). […]", "data": [{"smiles": "Cn1nc(C(=O)NCCN2CCOCC2)cc1-c1cc2cccnc2[nH]1", "note": "[Example compound 24, 1-methyl-N-[2-(morpholin-4-yl)ethyl]-5-{1H-pyrrolo[2,3-b]pyridin-2-yl}-1H-pyrazole-3-carboxamide]", "values": [{"measurement": "improvement effect against lowering of the pain threshold at colon extension stimulation", "result": "improvement effects against lowering of the pain threshold"}]}]}
